We go through 13 compounds from patent US4567197A, “1,3-Dioxan-5-ylalkenoic acids” (Imperial Chemical Industries PLC, priority 1982, dated 1986).

The test system of experiment [1] is hypertensive effects of the TXA2 mimetic U46619. Kind of experiment: antagonism of the hypertensive effect of U46619 in anaesthetised rats. Conditions: for period of significant reduction of the hypertensive effects of U46619: oral administration, dose not stated. The format is in vivo, rat (Alderley Park strain). On the procedure:
Male rats (Alderley Park strain) are anaesthetised with sodium pentabarbital and blood pressure is monitored at the carotid artery. The TXA2 mimetic agent known as U46619 (e.g. R. L. Jones, et alia, in "Chemistry, Biochemistry and Pharmacological Activity of Prostanoids" eds. S. M. Roberts and F. Scheinmann, at p.211; Pergamon Press, 1979) is administered intravenously via the jugular vein and an ED50 (dose necessary to produce 50% of the maximum hypertensive effect) is established (n=3). The ED50 for U46619 is approximately 5 μg/kg. A test compound is then administered either intravenously via the jugular vein or orally via a cannula directly into the stomach and the animal challenged with an ED50 dose of U46619, five minutes after dosing with test compound and then successively every ten minutes until the hypertensive effect of U46619 is no longer blocked.

Experiment [2] concerns citrated, platelet rich human plasma. In words: blood platelet aggregation test (b), induced by arachidonic acid. The format is cell-based. The following applies: aggregation induced by sub-maximal arachidonic acid (25-100 μg/ml.). On the procedure: (§1) As stated earlier, the compounds of formula I are antagonists of one or more of the actions of TXA2, for example certain of its actions on blood platelets, the vasculature and/or the lung.
(b) a standard blood platelet aggregation test based on that described by Born (Nature, 1962, 194, 927-929) and involving measuring the inhibition by a test compound of aggregation of citrated, platelet rich human plasma induced by a sub-maximal concentration (in the range 25-100 μg/ml.) of arachidonic acid; and […]

The test system of a further experiment is rabbit aortal strip. In words: rabbit aortal strip test (a), TXA2 as agonist. As to the method: as §1
(a) The standard rabbit aortal strip model devised by Piper and Vane (Nature, 1969, 223, 29-35) using as agonist a freshly prepared sample of TXA2, generated by addition of arachidonic acid (25 μg. to citrated, platelet rich rabbit plasma (250 μl. ) and allowing the mixture to aggregate fully over 90 seconds before use;

The test system of experiment [3] is bronchoconstriction induced in the Konzett-Rossler guinea-pig model. Kind of experiment: bronchoconstriction test (c), Konzett-Rossler guinea-pig model, induced by U46619. The experiment is classed as in vivo. Conditions: 5 mg./kg. i.v., U46619 1-1.5 μg/kg i.v.
From the text: as §1
(c) a standard bronchoconstriction test involving measuring the inhibition by a test compound of the bronchoconstriction induced in the Konzett-Rossler guinea-pig model (as modified by Collier and James, Brit. J. Pharmacol., 1967, 30, 283-307) by intravenous administration of the TXA2 mimetic agent, U46619 at 1-1.5 μg/kg.

Turning to `CCC1(CC)OC[C@@H](C/C=C\CCCC(=O)O)[C@@H](c2ccccc2)O1` (relative stereo) [Compound 1, 5(Z)-7-(2,2-diethyl-4-phenyl-1,3-dioxan-cis-5-yl)heptenoic acid], the “period of significant reduction of the hypertensive effects of U46619” value in experiment [1] is on record as “at least 60 minutes”.
For `O=C(O)CCC/C=C\C[C@@H]1COC2(CCCCC2)O[C@@H]1c1ccccc1` (relative stereo) [Compound 2, 5(Z)-7-(4'-phenyl-[cyclohexanespiro-2'-1,3-dioxan]-cis-5'-yl)heptenoic acid], the “period of significant reduction of the hypertensive effects of U46619” value in experiment [1] was “at least 60 minutes”.
Turning to `CC1(C)OC[C@@H](C/C=C\CCCC(=O)O)[C@@H](c2cccc(F)c2)O1` (relative stereo) [Compound 3], the “period of significant reduction of the hypertensive effects of U46619” value in experiment [1] is reported as “at least 60 minutes”.
On the same count and under the same terms, next, `COc1ccccc1[C@H]1OC(C)(C)OC[C@H]1C/C=C\CCCC(=O)O` (relative stereo) [Compound 5, 5(Z)-7-[2,2-dimethyl-4-(2-methoxyphenyl)-1,3-dioxan-cis-5-yl]heptenoic acid]: “at least 60 minutes”; `O=C(O)CCC/C=C\C[C@@H]1CO[C@H](c2ccccc2Cl)O[C@@H]1c1ccccc1` (relative stereo) [Compound 11]: “at least 60 minutes”.
Regarding `O=C(O)CCC/C=C\C[C@@H]1CO[C@H](c2ccc(Cl)cc2)O[C@@H]1c1ccccc1` (relative stereo) [Compound 13], the “period of significant reduction of the hypertensive effects of U46619” value in experiment [1] is on record as “at least 60 minutes”.
For the compound `CC(C)[C@H]1OC[C@@H](C/C=C\CCCC(=O)O)[C@@H](c2ccccc2)O1` (relative stereo) [Compound 20], in experiment [1], the “period of significant reduction of the hypertensive effects of U46619” value was “at least 60 minutes”.
Consider `O=C(O)CCC/C=C\C[C@@H]1CO[C@H](c2ccc3c(c2)OCO3)O[C@@H]1c1ccccc1` (relative stereo) [Compound 21], for which the “period of significant reduction of the hypertensive effects of U46619” value in experiment [1] is recorded as “at least 60 minutes”.
Still for that read-out and setting: the result for `C[C@H]1OC[C@@H](C/C=C\CCCC(=O)O)[C@@H](c2ccccc2)O1` (relative stereo) [Compound 23, 5(Z)-7-([2,4,5-cis]-2-methyl-4-phenyl-1,3-dioxan-5-yl)heptenoic acid] reads “at least 60 minutes”; that for `Cc1ccccc1[C@H]1OC(C)(C)OC[C@H]1C/C=C\CCCC(=O)O` (relative stereo) [Compound 24, 5(Z)-7-[2,2-dimethyl-4-(2-methylphenyl)-1,3-dioxan-cis-5-yl]heptenoic acid], “at least 60 minutes”.
One may read the IC50 as the midpoint of a concentration-inhibition curve. A high value points to a need for much substance. As usually defined, the pA2 is the negative logarithm of the molar antagonist concentration that doubles the agonist concentration needed for the same response. The low end stands for lower antagonist potency, the high end for higher antagonist potency. In experiment [2], `CC1(C)OC[C@@H](C/C=C\CCCC(=O)O)[C@@H](c2ccccc2)O1` (relative stereo) [Example 1, 5(Z)-7-(2,2-dimethyl-4-phenyl-1,3-dioxan-cis-5-yl)heptenoic acid] showed a 50% inhibitory concentration (IC50) of roughly 67 µM. In the experiment with rabbit aortal strip, the pA2 came to 6.28. This compound yielded a reduction of bronchoconstriction in experiment [3] of 90%.
Regarding `CCC1(CC)OC[C@@H](C/C=C\CCCC(=O)O)[C@@H](c2ccccc2)O1` (single isomer, unassigned) [Example 100, (-)-5(Z)-(2,2-diethyl-4-phenyl-1,3-dioxan-cis-5-yl)heptenoic acid], the “period of significant reduction (>30%) of the hypertensive effects of U46619” value in experiment [1] (oral, 50 mg./kg.) stood at 120 min. Also, the “reduction of the hypertensive effects of U46619” value in experiment [1] (oral, 50 mg./kg., for a period of 120 minutes) is greater than 30%.
By ED50 is commonly meant the dose that gives a 50% effect, or the effect in half of the subjects. Consider `CCCCC[C@H](O)/C=C/[C@@H]1[C@@H](C/C=C\CCCC(=O)O)[C@H]2CO[C@@H]1C2` [Example U46619, reference compound], for which, in experiment [1] (Rattus norvegicus, intravenous via jugular vein, n=3, read-out: ED50 (dose necessary to produce 50% of the maximum hypertensive effect)), the ED50 is roughly 5 µg/kg.
